Laboratory results reported in patent US7741327B2 (Hoffmann-La Roche Inc., priority 2008, dated 2010).

Target: T1, Recombinant human liver GK1 (GST-GK) (Homo sapiens, UniProt P35557)
T1 construct: made in house; host or cells: E. coli
T1 sequence (P35557 1-466 isoform P35557-2): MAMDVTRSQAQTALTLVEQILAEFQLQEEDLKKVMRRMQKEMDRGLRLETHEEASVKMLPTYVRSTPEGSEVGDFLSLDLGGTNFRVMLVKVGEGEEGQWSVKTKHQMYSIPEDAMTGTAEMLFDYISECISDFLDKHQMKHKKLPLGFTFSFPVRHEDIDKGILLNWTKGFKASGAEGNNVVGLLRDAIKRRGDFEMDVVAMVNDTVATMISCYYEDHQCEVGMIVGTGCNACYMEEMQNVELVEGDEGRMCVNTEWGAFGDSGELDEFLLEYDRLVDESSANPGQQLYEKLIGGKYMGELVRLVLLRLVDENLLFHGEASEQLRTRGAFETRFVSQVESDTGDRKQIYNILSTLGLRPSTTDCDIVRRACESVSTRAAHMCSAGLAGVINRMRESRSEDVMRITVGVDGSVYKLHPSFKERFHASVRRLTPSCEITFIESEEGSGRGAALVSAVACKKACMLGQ
Test: In vitro glucokinase activity (G6PDH-coupled NADH assay)
Format: biochemical
Details: 30° C., 5 mM D-glucose, 10% DMSO
Method in brief: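 Activation measured as the rate of OD340 rise from G6PDH-coupled NADH production, relative to 10% DMSO control, reported as SC1.5 (concentration for 50% activity increase). Conditions: 30° C, pH 7.1 Hepes, 5 mM glucose, 1 mM ATP, purified recombinant GST-human GK1, compound preincubated 10 min before enzyme addition.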

SMILES | SC1.5 (concentration of activator that produced a 50% increase in the activity of GK) [µM]
CCOc1ccc(F)c(OC2=CC(=O)N([C@@H](CC(C)C)C(=O)Nc3cnc([C@H](O)CO)cn3)C2)c1F [Example 153, (S)-2-[4-(3-Ethoxy-2,6-difluoro-phenoxy)-2-oxo-2,5-dihydro-pyrrol-1-yl]-4-methyl-pentanoic acid [5-((S)-1,2-dihydroxy-ethyl)-pyrazin-2-yl]-amide] | 0.207
C=Cc1cccc(OC2=CC(=O)N([C@@H](CC(C)C)C(=O)Nc3cnccn3)C2)c1F [Example 154, (S)-2-[4-(2-Fluoro-3-vinyl-phenoxy)-2-oxo-2,5-dihydro-pyrrol-1-yl]-4-methyl-pentanoic acid pyrazin-2-ylamide] | 0.172
CC(C)C[C@@H](C(=O)Nc1cnccn1)N1CC(Oc2cccc(C(O)CO)c2F)=CC1=O (stereo partly drawn) [Example 155, (S)-2-{4-[3-(1,2-Dihydroxy-ethyl)-2-fluoro-phenoxy]-2-oxo-2,5-dihydro-pyrrol-1-yl}-4-methyl-pentanoic acid pyrazin-2-ylamide] | 1.717
CC(C)C[C@@H](C(=O)Nc1ccn(CC(N)=O)n1)N1CC(Oc2cccc(C3CC3)c2F)=CC1=O [Example 156, (S)-2-[4-(3-Cyclopropyl-2-fluoro-phenoxy)-2-oxo-2,5-dihydro-pyrrol-1-yl]-4-methyl-pentanoic acid (1-carbamoylmethyl-1H-pyrazol-3-yl)-amide] | 0.406
CCC[C@@H](C(=O)Nc1ccn(C[C@@H](O)CO)n1)N1CC(Oc2c(F)cccc2F)=CC1=O [Example 157, (S)-2-[4-(2,6-Difluoro-phenoxy)-2-oxo-2,5-dihydro-pyrrol-1-yl]-pentanoic acid [1-((R)-2,3-dihydroxy-propyl)-1H-pyrazol-3-yl]-amide] | 1.849
O=C(Nc1ccn(C[C@@H](O)CO)n1)C(CC1(F)CCCC1)N1CC(Oc2c(F)cccc2F)=CC1=O (stereo partly drawn) [Example 159, 2-[4-(2,6-Difluoro-phenoxy)-2-oxo-2,5-dihydro-pyrrol-1-yl]-N-[1-((R)-2,3-dihydroxy-propyl)-1H-pyrazol-3-yl]-3-(1-fluoro-cyclopentyl)-propionamide] | 2.867
COc1cccc(OC2=CC(=O)N([C@@H](CC(C)C)C(=O)Nc3ccn(C[C@@H](O)CO)n3)C2)c1 [Example 160, (S)-2-[4-(3-Methoxy-phenoxy)-2-oxo-2,5-dihydro-pyrrol-1-yl]-4-methyl-pentanoic acid [1-((R)-2,3-dihydroxy-propyl)-1H-pyrazol-3-yl]-amide] | 0.306
CCOc1cccc(OC2=CC(=O)N([C@@H](CC(C)C)C(=O)Nc3ccn(C[C@@H](O)CO)n3)C2)c1Cl [Example 161, (S)-2-[4-(2-chloro-3-ethoxy-phenoxy)-2-oxo-2,5-dihydro-pyrrol-1-yl]-4-methyl-pentanoic acid [1-((R)-2,3-dihydroxy-propyl)-1H-pyrazol-3-yl]-amide] | 0.042
CCOc1cccc(OC2=CC(=O)N([C@@H](CC(C)C)C(=O)Nc3ccn(C[C@@H](O)CO)n3)C2)c1 [Example 162, (S)-2-[4-(3-Ethoxy-phenoxy)-2-oxo-2,5-dihydro-pyrrol-1-yl]-4-methyl-pentanoic acid [1-((R)-2,3-dihydroxy-propyl)-1H-pyrazol-3-yl]-amide] | 0.307
CCOc1cccc(OC2=CC(=O)N([C@@H](CC(C)C)C(=O)Nc3ccn(CC(C)(C)O)n3)C2)c1 [Example 163, (S)-2-[4-(3-Ethoxy-phenoxy)-2-oxo-2,5-dihydro-pyrrol-1-yl]-4-methyl-pentanoic acid [1-(2-hydroxy-2-methyl-propyl)-1H-pyrazol-3-yl]-amide] | 0.239
COc1cccc(OC2=CC(=O)N([C@@H](CC3CCCCC3)C(=O)Nc3ccn(C[C@@H](O)CO)n3)C2)c1 [Example 164, (S)-3-Cyclohexyl-N-[1-((R)-2,3-dihydroxy-propyl)-1H-pyrazol-3-yl]-2-[4-(3-methoxy-phenoxy)-2-oxo-2,5-dihydro-pyrrol-1-yl]-propionamide] | 0.012
COc1cccc(OC2=CC(=O)N([C@@H](CC(C)C)C(=O)Nc3ccn(CC(C)(C)O)n3)C2)c1 [Example 165, (S)-2-[4-(3-Methoxy-phenoxy)-2-oxo-2,5-dihydro-pyrrol-1-yl]-4-methyl-pentanoic acid [1-(2-hydroxy-2-methyl-propyl)-1H-pyrazol-3-yl]-amide] | 0.243
CC(C)C[C@@H](C(=O)Nc1ccn(C[C@@H](O)CO)n1)N1CC(Oc2ccccc2F)=CC1=O [Example 166, (S)-2-[4-(2-Fluoro-phenoxy)-2-oxo-2,5-dihydro-pyrrol-1-yl]-4-methyl-pentanoic acid [1-((R)-2,3-dihydroxy-propyl)-1H-pyrazol-3-yl]-amide] | 0.239
CC(C)C[C@@H](C(=O)Nc1ccn(CC(C)(C)O)n1)N1CC(Oc2ccccc2F)=CC1=O [Example 167, (S)-2-[4-(2-Fluoro-phenoxy)-2-oxo-2,5-dihydro-pyrrol-1-yl]-4-methyl-pentanoic acid [1-(2-hydroxy-2-methyl-propyl)-1H-pyrazol-3-yl]-amide] | 0.206
CC(C)C[C@@H](C(=O)Nc1ccn(C[C@@H](O)CO)n1)N1CC(Oc2ccc3c(c2)OCCO3)=CC1=O [Example 168, (S)-2-[4-(2,3-dihydro-benzo[1,4]dioxin-6-yloxy)-2-oxo-2,5-dihydro-pyrrol-1-yl]-4-methyl-pentanoic acid [1-((R)-2,3-dihydroxy-propyl)-1H-pyrazol-3-yl]-amide] | 0.437
O=C(Nc1ccn(C[C@@H](O)CO)n1)C(CC1CCC1)N1CC(Oc2ccccc2Cl)=CC1=O (stereo partly drawn) [Example 169, 2-[4-(2-chloro-phenoxy)-2-oxo-2,5-dihydro-pyrrol-1-yl]-3-cyclobutyl-N-[1-((R)-2,3-dihydroxy-propyl)-1H-pyrazol-3-yl]-propionamide] | 0.086
COc1cccc(OC2=CC(=O)N(C(CC(C)(C)F)C(=O)Nc3ccn(C[C@@H](O)CO)n3)C2)c1Cl (stereo partly drawn) [Example 170, 2-[4-(2-Chloro-3-methoxyphenoxy)-2-oxo-2,5-dihydro-pyrrol-1-yl]-4-fluoro-4-methyl-pentanoic acid-[1-((R)-2,3-dihydroxy-propyl)-1H-pyrazol-3-yl]-amide] | 3.575
COc1cccc(OC2=CC(=O)N(C(CC(C)(C)F)C(=O)Nc3ccn(CC(C)(C)O)n3)C2)c1Cl (stereo not drawn) [Example 171, 2-[4-(2-Chloro-3-methoxy-phenoxy)-2-oxo-2,5-dihydro-pyrrol-1-yl]-4-fluoro-4-methyl-pentanoic acid [1-(2-hydroxy-2-methyl-propyl)-1H-pyrazol-3-yl]-amide] | 3.485
